Measured values from ChEMBL document CHEMBL3396972, “Synthesis and biological evaluation of DAPY-DPEs hybrids as non-nucleoside inhibitors of HIV-1 reverse transcriptase” (Bioorg Med Chem, 2015).

How the values were obtained:
[1] = Cytotoxicity against human MT4 cells after 5 days MTT assay; assay type: cell-based
[2] = system: Human immunodeficiency virus 1; assay: Antiviral activity against HIV-1 RES056 harboring reverse transcriptase K103N/Y181C double mutant infected in human MT4 cells assessed as reduction of virus-induced cytopathic effect after 5 days by MTT assay; assay type: functional, organism-based; details: Human immunodeficiency virus 1, RES056, MT4, 120 h
[3] = system: Human immunodeficiency virus 1; assay: Antiviral activity against wild type HIV-1 3B infected in human MT4 cells assessed as reduction of virus-induced cytopathic effect after 5 days by MTT assay; assay type: functional, organism-based; details: Human immunodeficiency virus 1, 3B, MT4, 120 h
[4] = system: Human immunodeficiency virus 2; assay: Antiviral activity against wild type HIV-2 ROD infected in human MT4 cells assessed as reduction of virus-induced cytopathic effect after 5 days by MTT assay; assay type: functional, organism-based; details: Human immunodeficiency virus 2, ISOLATE ROD, MT4, 120 h
[5] = Selectivity index, ratio of CC50 for human MT4 cells to EC50 for wild type HIV-1 3B infected in human MT4 cells; assay type: toxicity, cell-based; details: read-out: Ratio CC50/EC50
[6] = target: Human immunodeficiency virus type 1 reverse transcriptase (Human immunodeficiency virus 1, UniProt Q72547); assay: Inhibition of wild type HIV1 p66/p51 reverse transcriptase by spectrofluorometry

| SMILES | CC50 at 120 h [1] | EC50 [2] | EC50 [3] | EC50 [4] | selectivity ratio [5] | IC50 [6] |
| --- | --- | --- | --- | --- | --- | --- |
| Cc1ccnc2c1NC(=O)c1cccnc1N2C1CC1 [NEVIRAPINE] | > 15 µM | ≥ 7.59 µM |  |  |  |  |
| N#Cc1ccc(Nc2nccc(OCC(=O)Nc3ccc(F)cc3)n2)cc1 | > 344 µM | > 344 µM | > 344 µM | > 344 µM |  |  |
| Cc1cc(OCC(=O)Nc2ccc([N+](=O)[O-])cc2)nc(Nc2ccc(C#N)cc2)n1 | > 309 µM |  | > 309 µM | > 309 µM |  |  |
| CC(C)Nc1cccnc1N1CCN(C(=O)c2cc3cc(NS(C)(=O)=O)ccc3[nH]2)CC1 [DELAVIRDINE] | > 43.8 µM | > 43.8 µM | 0.65 µM |  | > 67 |  |
| Cc1cc(C#N)cc(C)c1Oc1nc(Nc2ccc(C#N)cc2)nc(N)c1Br [ETRAVIRINE] | 13.3 µM | 0.013 µM | 0.0017 µM | > 13.3 µM | 7680 |  |
| Cc1cnc(Nc2ccc(C#N)cc2)nc1OCC(=O)Nc1ccccc1F | > 331 µM | > 331 µM | 0.013 µM | > 331 µM | > 25200 | 0.083 µM |
| N#Cc1ccc(Nc2nccc(OCC(=O)Nc3cccc(Cl)c3)n2)cc1 | > 329 µM | > 329 µM | 0.035 µM | > 329 µM | > 9340 | 0.12 µM |
| Cc1cnc(Nc2ccc(C#N)cc2)nc1OCC(=O)Nc1ccccc1Cl | 197 µM | > 197 µM | 0.017 µM | > 197 µM | 11300 | 0.046 µM |
| Nc1ccn([C@@H]2CS[C@H](CO)O2)c(=O)n1 [LAMIVUDINE] | > 87.2 µM |  |  |  | > 39 |  |
| Cc1cc(OCC(=O)Nc2ccc(C#N)cc2)nc(Nc2ccc(C#N)cc2)n1 | > 325 µM |  | > 325 µM | > 325 µM |  |  |
| Cc1cc(OCC(=O)Nc2ccc(Cl)cc2)nc(Nc2ccc(C#N)cc2)n1 | 2.63 µM | 2.63 µM | > 2.63 µM | 2.63 µM | < 1 |  |
| Cc1cnc(Nc2ccc(C#N)cc2)nc1OCC(=O)Nc1ccc([N+](=O)[O-])cc1 | 66.3 µM | > 66.3 µM | > 66.3 µM | > 66.3 µM | < 1 |  |
| N#Cc1ccc(Nc2nccc(OCC(=O)Nc3ccc(C#N)cc3F)n2)cc1 | > 322 µM | > 322 µM | > 322 µM | > 322 µM |  |  |
| Cc1cn([C@H]2C[C@H](N=[N+]=[N-])[C@@H](CO)O2)c(=O)[nH]c1=O [ZIDOVUDINE] | > 93.5 µM | 0.01 µM |  | 0.0066 µM |  |  |
| Cc1cnc(Nc2ccc(C#N)cc2)nc1OCC(=O)Nc1ccc(Br)cc1 | 34.7 µM | > 34.7 µM | > 34.7 µM | > 34.7 µM | < 1 |  |
| COc1ccc(NC(=O)COc2ccnc(Nc3ccc(C#N)cc3)n2)cc1 | > 333 µM | > 333 µM | 49.1 µM | > 333 µM | > 7 | 24.6 µM |
| O=c1[nH]cnc2c1ncn2[C@H]1CC[C@@H](CO)O1 [DIDANOSINE] | > 212 µM |  |  |  | > 9 |  |
| Cc1cnc(Nc2ccc(C#N)cc2)nc1OCC(=O)Nc1ccc(Cl)cc1 | > 317 µM | > 317 µM | > 317 µM | > 317 µM |  |  |
| Cc1cc(OCC(=O)Nc2cccc(Cl)c2)nc(Nc2ccc(C#N)cc2)n1 | 32.1 µM | > 32.1 µM | 0.17 µM | > 32.1 µM | 197 | 0.54 µM |
| Cc1cc(OCC(=O)Nc2ccc(C#N)cc2F)nc(Nc2ccc(C#N)cc2)n1 | > 311 µM |  | > 311 µM | > 311 µM |  |  |
| O=C1Nc2ccc(Cl)cc2[C@@](C#CC2CC2)(C(F)(F)F)O1 [EFAVIRENZ] | > 6.34 µM |  | 0.0062 µM |  |  |  |
| Cc1cnc(Nc2ccc(C#N)cc2)nc1OCC(=O)Nc1ccc(F)cc1 | > 331 µM | > 331 µM | ≥ 34.5 µM | > 331 µM |  | 18.9 µM |
| N#Cc1ccc(Nc2nccc(OCC(=O)Nc3ccc([N+](=O)[O-])cc3)n2)cc1 | > 320 µM | > 320 µM | > 320 µM | > 320 µM |  |  |
| Cc1cnc(Nc2ccc(C#N)cc2)nc1OCC(=O)Nc1cccc(Cl)c1 | 144 µM | > 144 µM | 0.05 µM | > 144 µM | 2890 | 0.16 µM |
| Cc1cc(OCC(=O)Nc2ccc(F)cc2)nc(Nc2ccc(C#N)cc2)n1 | > 331 µM | > 331 µM | > 331 µM | > 331 µM |  |  |
| N#Cc1ccc(NC(=O)COc2ccnc(Nc3ccc(C#N)cc3)n2)cc1 | > 338 µM | > 338 µM | ≥ 35.1 µM | > 338 µM |  | 23.9 µM |
| N#Cc1ccc(Nc2nccc(OCC(=O)Nc3ccc(Cl)cc3)n2)cc1 | 162 µM | > 162 µM | 19.2 µM | 162 µM | 8 | 26.9 µM |
| Cc1cnc(Nc2ccc(C#N)cc2)nc1OCC(=O)Nc1ccc(C#N)cc1 | ≥ 48.4 µM | > 48.4 µM | 2.42 µM | > 48.4 µM | ≥ 20 | 17.6 µM |
| Cc1cc(OCC(=O)Nc2ccc(Br)cc2)nc(Nc2ccc(C#N)cc2)n1 | 0.93 µM |  | > 0.93 µM | 0.93 µM | < 1 |  |
| Cc1cnc(Nc2ccc(C#N)cc2)nc1OCC(=O)Nc1ccc(C#N)cc1F | > 311 µM | > 311 µM | 3.03 µM | > 311 µM | > 102 | 12 µM |
